The results in this text go back to patent US11370773B1, “Inhibiting human integrin (alpha-4) (beta-7)” (Morphic Therapeutic, Inc., priority 2019, dated 2022).

For this assay, the target named is T1, α4β7 (Homo sapiens, UniProt P13612+P26010).
T1 construct: α4β7 expressing cells (RPMI-8866); endogenous in cells; host or cells: RPMI 8866
T1 sequence (P13612 34-1032): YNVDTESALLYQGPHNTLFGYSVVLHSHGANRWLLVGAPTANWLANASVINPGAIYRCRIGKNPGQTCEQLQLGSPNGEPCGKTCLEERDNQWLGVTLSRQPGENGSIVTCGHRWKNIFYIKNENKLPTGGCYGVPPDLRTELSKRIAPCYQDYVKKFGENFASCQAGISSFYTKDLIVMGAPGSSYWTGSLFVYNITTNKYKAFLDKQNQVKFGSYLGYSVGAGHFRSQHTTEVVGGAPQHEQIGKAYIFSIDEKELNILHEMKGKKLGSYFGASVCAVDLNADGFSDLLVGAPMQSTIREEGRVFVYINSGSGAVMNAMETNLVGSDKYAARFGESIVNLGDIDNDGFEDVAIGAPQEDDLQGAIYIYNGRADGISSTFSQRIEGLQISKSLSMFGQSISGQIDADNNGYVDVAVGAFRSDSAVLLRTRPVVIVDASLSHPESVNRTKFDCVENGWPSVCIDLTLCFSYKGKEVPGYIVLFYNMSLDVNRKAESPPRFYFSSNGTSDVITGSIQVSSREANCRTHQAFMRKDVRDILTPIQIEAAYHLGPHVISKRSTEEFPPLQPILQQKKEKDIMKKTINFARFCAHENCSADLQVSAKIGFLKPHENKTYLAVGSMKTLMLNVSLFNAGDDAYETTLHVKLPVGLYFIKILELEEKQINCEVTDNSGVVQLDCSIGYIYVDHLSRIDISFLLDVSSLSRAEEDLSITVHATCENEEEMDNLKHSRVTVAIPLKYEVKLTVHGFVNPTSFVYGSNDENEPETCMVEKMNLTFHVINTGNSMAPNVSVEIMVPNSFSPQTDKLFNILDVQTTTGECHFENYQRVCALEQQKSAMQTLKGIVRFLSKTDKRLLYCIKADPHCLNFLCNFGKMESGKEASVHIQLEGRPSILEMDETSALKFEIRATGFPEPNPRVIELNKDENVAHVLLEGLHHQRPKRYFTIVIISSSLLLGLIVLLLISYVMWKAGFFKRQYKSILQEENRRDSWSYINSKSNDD
T1 sequence (P26010 20-798): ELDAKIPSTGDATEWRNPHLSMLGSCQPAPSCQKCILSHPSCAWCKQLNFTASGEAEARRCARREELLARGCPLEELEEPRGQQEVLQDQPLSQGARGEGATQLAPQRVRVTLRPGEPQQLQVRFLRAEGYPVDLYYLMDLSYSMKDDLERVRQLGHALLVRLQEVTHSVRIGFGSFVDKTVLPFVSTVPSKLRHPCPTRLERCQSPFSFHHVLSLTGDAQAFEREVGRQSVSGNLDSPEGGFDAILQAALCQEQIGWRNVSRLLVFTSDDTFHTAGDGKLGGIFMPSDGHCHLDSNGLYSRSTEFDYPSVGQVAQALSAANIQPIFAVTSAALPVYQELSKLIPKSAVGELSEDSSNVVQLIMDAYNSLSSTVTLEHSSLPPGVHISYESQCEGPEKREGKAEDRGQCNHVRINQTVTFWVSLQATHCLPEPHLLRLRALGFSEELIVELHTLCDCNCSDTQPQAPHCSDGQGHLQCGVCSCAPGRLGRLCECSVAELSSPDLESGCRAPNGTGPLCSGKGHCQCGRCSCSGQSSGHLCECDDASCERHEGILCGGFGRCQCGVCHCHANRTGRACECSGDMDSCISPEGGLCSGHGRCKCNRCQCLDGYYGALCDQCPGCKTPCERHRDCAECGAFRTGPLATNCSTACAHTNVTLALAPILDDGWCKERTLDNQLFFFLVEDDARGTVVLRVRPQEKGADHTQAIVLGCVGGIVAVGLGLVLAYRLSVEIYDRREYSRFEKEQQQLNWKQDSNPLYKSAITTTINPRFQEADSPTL
The assay is described as follows: Cell-based ligand binding assay (LBA), RPMI 8866 cells in competition with soluble MAdCAM-1-Fc. To be noted: MAdCAM-1-Fc Dylight 650, flow cytometry, read-out: LB Assay (Example 6) IC50. As to the method:
Three in vitro assays were used to examine the α4β7 mechanistic process used by cells: 1) ligand:receptor affinity, 2) the avidity of those interactions on a cell's surface, and 3) how those interactions fare under an imposing force. In Example 5, a Fluorescence Polarization (FP) assay is used to measure compound activity through binding competition with the fluorescein-labeled peptide. In Example 6, the potency of compounds against α4β7 is measured in the cell-based ligand binding assay (LBA), using RPMI 8866 cells incubated with the compound samples in competition with soluble MAdCAM-1 ligand. In Example 7, activity of compounds is evaluated in a cell adhesion assay that mechanistically tests what occurs in vivo when trafficking cells utilize α4β7 to adhere to MAdCAM-1 expressing HEVs of the gut during the extravasation process. In the cell adhesion assay of Example 7, a MAdCAM1-(Fc) is coated on plastic, and α4β7 expressing cells (RPMI-8866) are allowed to adhere to the coated surface in the presence of the test compounds. Next, the force of washing with buffer is applied to cells thereby testing the strength of that adhesion. Unattached cells are removed and the remaining adherent cells are quantified.
5 ul of 33 nM MAdCAM-1-Fc fluorescently labeled with Dylight 650 in 50 mM HEPES pH 7.3, 150 mM sodium chloride, and 1% bovine serum albumin was added to the cells. The samples were incubated for 45 minutes at room temperature, fixed with 0.8% formaldehyde for 30 minutes at room temperature, and washed with 50 mM Tris pH 7.5, 150 mM NaCl, 1 mM EDTA, and 1% bovine serum albumin. Fluorescence intensity for each cell was measured via flow cytometry. Dead cells were excluded from further analysis based on staining with the 780 fixable viability dye. Median fluorescence intensity for Dylight 650 was determined for each sample and concentration-response curves were analyzed for IC50 values using 4-parameter non-linear regression analysis.
In general terms: A flow cytometer gives signals particle by particle.

The term IC50 denotes the concentration that inhibits the measured activity by half. Regarding `Cc1cc(-c2c(C)ccc(F)c2C)cc([C@H](CC(=O)O)NC(=O)C(CC(C)C)n2cc(CCN3CCC3)c(C(F)(F)F)cc2=O)c1F` (single isomer, unassigned) [AF-P2], the IC50 was at most 0.01 µM.

Consider `Cc1ccn([C@@H](NC(C)C)C(=O)N[C@@H](CC(=O)O)c2cncc(-c3c(C)cccc3C)c2)c(=O)c1` [Example C-7, reference compound], for which the IC50 was at most 0.01 µM.

For `Cc1ccn([C@@H](CC(C)C)C(=O)N[C@H](CC(=O)O)c2cncc(-c3c(C)cccc3C)c2)c(=O)c1` [Example C-28, reference compound], the IC50 lay within 0.01 to 0.5 µM.

Regarding `Cc1ccc(F)c(C)c1-c1cc(C2CC2)c(F)c([C@H](CC(=O)O)NC(=O)[C@H](CC(C)C)n2cc(CCN3CCC3)c(C(F)(F)F)cc2=O)c1F` [HH-P2, (3S)-3-(2-(5-(2-(azetidin-1-yl)ethyl)-2-oxo-4-(trifluoromethyl)pyridin-1(2H)-yl)-4-methylpentanamido)-3-(5-cyclopropyl-2,3′,4-trifluoro-2′,6′-dimethyl-[1,1′-biphenyl]-3-yl)propanoic Acid], the IC50 was at most 0.01 µM.

On to `Cc1cc(C)c(-c2cc(C3CC3)c(F)c([C@H](CC(=O)O)NC(=O)[C@H](CC(C)C)n3cc(CCN4CCC4)c(C(F)(F)F)cc3=O)c2F)c(C)c1` [HM-P2, (3S)-3-(2-(5-(2-(azetidin-1-yl)ethyl)-2-oxo-4-(trifluoromethyl)pyridin-1(2H)-yl)-4-methylpentanamido)-3-(5-cyclopropyl-2,4-difluoro-2′,4′,6′-trimethylbiphenyl-3-yl)propanoic Acid], for which the IC50 was at most 0.01 µM.

Regarding `Cc1cc(C2CC2)cc(C)c1-c1cc(C(F)(F)F)c(F)c([C@H](CC(=O)O)NC(=O)[C@H](CC(C)C)n2cc(CCCN(C)C)c(C(F)(F)F)cc2=O)c1F` [HU-P2, (3S)-3-(4′-cyclopropyl-2,4-difluoro-2′,6′-dimethyl-5-(trifluoromethyl)-[1,1′-biphenyl]-3-yl)-3-(2-(5-(3-(dimethylamino)propyl)-2-oxo-4-(trifluoromethyl)pyridin-1(2H)-yl)-4-methylpentanamido)propanoic Acid], the IC50 is 0.01 to 0.5 µM.

On to `Cc1cc(F)cc(C)c1-c1cc(C(F)(F)F)c(F)c([C@H](CC(=O)O)NC(=O)[C@H](CC(C)C)n2cc(CCCN(C)C)c(C(F)(F)F)cc2=O)c1F` [HW-P2, (3S)-3-(2-(5-(3-(dimethylamino)propyl)-2-oxo-4-(trifluoromethyl)pyridin-1(2H)-yl)-4-methylpentanamido)-3-(2,4,4′-trifluoro-2′,6′-dimethyl-5-(trifluoromethyl)-[1,1′-biphenyl]-3-yl)propanoic Acid], for which the IC50 was at most 0.01 µM.

Regarding `Cc1cc(C)c(-c2cc(C(F)(F)F)c(F)c([C@H](CC(=O)O)NC(=O)[C@H](CC(C)C)n3cc(CCCN(C)C)c(C(F)(F)F)cc3=O)c2F)c(C)c1` [HZ-P2, (3S)-3-(2,4-difluoro-2′,4′,6′-trimethyl-5-(trifluoromethyl)biphenyl-3-yl)-3-(2-(5-(3-(dimethylamino)propyl)-2-oxo-4-(trifluoromethyl)pyridin-1(2H)-yl)-4-methylpentanamido)propanoic Acid], the IC50 lay within 0.01 to 0.5 µM.

Take `Cc1cc(-c2c(C)cc(F)cc2C)cc([C@H](CC(=O)O)NC(=O)[C@H](CC(C)C)n2cc(CCN(C)C)cc(C(F)F)c2=O)c1F` [I-P2, (3S)-3-(4,4′-difluoro-2′,5,6′-trimethyl-[1,1′-biphenyl]-3-yl)-3-(2-(3-(difluoromethyl)-5-(2-(dimethylamino)ethyl)-2-oxopyridin-1(2H)-yl)-4-methylpentanamido)propanoic Acid]: the IC50 is at most 0.01 µM.

Consider `Cc1cc(C)c(-c2cc(C(F)(F)F)c(F)c([C@H](CC(=O)O)NC(=O)[C@H](CC(C)C)n3cc(CCN(C)C)c(C(F)(F)F)cc3=O)c2F)c(C)c1` [IF-P2, (3S)-3-(2,4-difluoro-2′,4′,6′-trimethyl-5-(trifluoromethyl)-[1,1′-biphenyl]-3-yl)-3-(2-(5-(2-(dimethylamino)ethyl)-2-oxo-4-(trifluoromethyl)pyridin-1(2H)-yl)-4-methylpentanamido)propanoic Acid], for which the half-maximal inhibitory concentration (IC50) lay within 0.01 to 0.5 µM.

For `Cc1cc(C)c(-c2cc(C(F)(F)F)c(F)c([C@H](CC(=O)O)NC(=O)[C@H](CC(C)C)n3cc(CCN4CCC4)c(C(F)(F)F)cc3=O)c2F)c(C)c1` [IG-P2, (3S)-3-(2-(5-(2-(azetidin-1-yl)ethyl)-2-oxo-4-(trifluoromethyl)pyridin-1(2H)-yl)-4-methylpentanamido)-3-(2,4-difluoro-2′,4′,6′-trimethyl-5-(trifluoromethyl)biphenyl-3-yl)propanoic Acid], the IC50 lay within 0.01 to 0.5 µM.

On to `Cc1cc(C)c(-c2cc(C)c(F)c([C@H](CC(=O)O)NC(=O)[C@H](CC(C)C)n3cc(CCCN(C)C)c(C(F)(F)F)cc3=O)c2F)c(C)c1F` [IW-P2, (3S)-3-(2-(5-(3-(dimethylamino)propyl)-2-oxo-4-(trifluoromethyl)pyridin-1(2H)-yl)-4-methylpentanamido)-3-(2,3′,4-trifluoro-2′,4′,5,6′-tetramethyl-[1,1′-biphenyl]-3-yl)propanoic Acid], for which the IC50 fell in the range of 0.01 to 0.5 µM.

Take `Cc1cc(F)c(C)c(C)c1-c1cc(C(F)(F)F)c(F)c([C@H](CC(=O)O)NC(=O)[C@H](CC(C)C)n2cc(CCN3CCC3)c(C(F)(F)F)cc2=O)c1F` [KT-P2, (3S)-3-(2-(5-(2-(azetidin-1-yl)ethyl)-2-oxo-4-(trifluoromethyl)pyridin-1(2H)-yl)-4-methylpentanamido)-3-(2,4,4′-trifluoro-2′,3′,6′-trimethyl-5-(trifluoromethyl)-[1,1′-biphenyl]-3-yl)propanoic Acid]: the IC50 was in the range of 0.01 to 0.5 µM.
